Test results reported in US20260184715A1, “NOVEL PYRROLO[1,2-d][1,2,4] TRIAZINONE DERIVATIVES AS NEGATIVE ALLOSTERIC MODULATORS OF MGLU7 RECEPTORS” (Neurosterix Pharma Sarl., priority 2022, published 2026).

Biological target: T1, human metabotropic glutamate 7 receptor (hmGlu7) (Homo sapiens, UniProt Q14831)
T1 construct: expressed in transfected cells
Assay: mGlu7 assay on HEK-expressing human mGlu7: fluorescent cell based-Ca2+ mobilization assay (FLIPR), inhibition of EC80 L-AP4 response
Settings: HEK-293 cells expressing hmGlu7, EC80 L-AP4; mean of at least three independent experiments in duplicate; read-out: Ca^2+ Flux (mean IC50)
From the text: mGlu7 Assay on HEK-Expressing Human mGLU7
The cDNA encoding the human metabotropic glutamate 7 receptor (hmGlu7), (accession number NM_181874.2, NCBI Nucleotide database browser), was subcloned into an expression vector containing also the hygromycin resistance gene. In parallel, the cDNA encoding a G protein allowing redirection of the activation signal to intracellular calcium flux was subcloned into a different expression vector containing also the Puromycin resistance gene. Transfection of both these vectors into HEK293 cells with PolyFect reagent (Qiagen) according to supplier's protocol, and hygromycin and puromycin treatment allowed selection of antibiotic resistant cells which had integrated stably one or more copies of the plasmids. Positive cellular clones expressing hmGlu7 were identified in a functional assay measuring changes in calcium fluxes in response to glutamate and L-AP4 or known mGlu7 orthosteric antagonists.
HEK-293 cells expressing hmGlu7 were maintained in media containing DMEM, Fetal Bovine Serum (10%), GlutaMAX™ (2 mM), penicillin (100 units/mL), streptomycin (100 μg/mL), geneticin (100 μg/mL) and hygromycin-B (40 μg/mL) and puromycin (1 μg/mL) at 37° C. with 5% CO2 in a humidified atmosphere.
Human mGlu7 HEK-293 cells were plated out 24 hours prior to a fluorescent cell-based calcium mobilization assay using FLIPR^384 assay (Molecular Device, Sunnyvale, CA, USA) in black-walled, clear-bottomed, poly-L-ornithine-coated 384-well plates at a density of 25,000 cells/well in a glutamine/glutamate free DMEM medium containing fetal bovine serum (10%), penicillin (100 units/mL), streptomycin (100 μg/mL) and doxycyline (1 μg/ml) at 37° C. with 5% CO2 in a humidified atmosphere.
On the day of the assay, the medium was aspirated and the cells were loaded with a 3 μM solution of Fluo4-AM (LuBioScience, Lucerne, Switzerland) in 0.03% pluronic acid. After 1 hour at 37° C./5% CO2, the non incorporated dye was removed by washing cell plate with the assay buffer. All assays were performed in a pH 7.4 buffered-Solution containing 20 mM HEPES, 143 mM NaCl, 6 mM KCl, 1 mM MgSO4, 1 mM CaCl2, 0.125 mM sulfinpyrazone and 0.1% glucose.
After 10 s of basal fluorescence recording, various concentrations of the compounds of the invention were added to the cells. Changes in fluorescence levels were first monitored for 180 s in order to detect any agonist activity of the compounds. Then the cells were stimulated by an EC80 L-AP4 concentration for an additional 110 s in order to measure inhibiting activities of the compounds of the invention. EC80 L-AP4 concentration is the concentration giving 80% of the maximal glutamate response.
The concentration-response curves of L-AP4 or representative compounds of the present invention were generated using the Prism GraphPad software (Graph Pad Inc, San Diego, USA). The curves were fitted to a four-parameter logistic equation:
(Y=Bottom+(Top−Bottom)/(1+10^((Log IC50−X)*Hill Slope)
allowing determination of IC50 values.
The Table 3 below represents the mean IC50 obtained from at least three independent experiments of selected molecules performed in duplicate.

T1 sequence (Q14831 35-922 isoform Q14831-2 limits assumed): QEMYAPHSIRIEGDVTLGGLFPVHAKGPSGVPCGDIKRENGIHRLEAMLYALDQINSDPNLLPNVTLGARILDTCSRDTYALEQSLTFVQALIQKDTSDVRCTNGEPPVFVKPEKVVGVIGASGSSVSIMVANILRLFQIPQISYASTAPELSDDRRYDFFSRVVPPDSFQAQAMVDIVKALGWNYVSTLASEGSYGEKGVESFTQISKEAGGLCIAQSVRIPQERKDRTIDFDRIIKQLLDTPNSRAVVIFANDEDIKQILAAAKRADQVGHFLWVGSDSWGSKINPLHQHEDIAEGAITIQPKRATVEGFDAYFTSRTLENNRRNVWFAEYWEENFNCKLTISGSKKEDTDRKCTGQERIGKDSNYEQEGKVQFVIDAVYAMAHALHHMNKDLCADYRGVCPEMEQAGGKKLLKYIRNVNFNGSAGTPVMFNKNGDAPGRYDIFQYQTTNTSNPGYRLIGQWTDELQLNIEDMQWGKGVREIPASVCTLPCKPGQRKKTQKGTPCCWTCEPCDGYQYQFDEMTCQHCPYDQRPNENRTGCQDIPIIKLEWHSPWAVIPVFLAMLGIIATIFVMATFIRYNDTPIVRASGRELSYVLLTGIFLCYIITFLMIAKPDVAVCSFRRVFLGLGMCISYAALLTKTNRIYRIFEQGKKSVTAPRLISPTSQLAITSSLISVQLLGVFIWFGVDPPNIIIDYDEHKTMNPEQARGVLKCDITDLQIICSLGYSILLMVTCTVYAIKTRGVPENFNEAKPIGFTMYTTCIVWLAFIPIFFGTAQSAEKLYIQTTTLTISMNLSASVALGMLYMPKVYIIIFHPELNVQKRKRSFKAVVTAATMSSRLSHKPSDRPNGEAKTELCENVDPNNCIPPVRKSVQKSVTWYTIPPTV

Compound	IC50 [nM]
COc1cccc(-c2c(C)c3cnn(-c4ccccn4)c(=O)n3c2C)c1 [1-2]	< 100
Cc1c(-c2cccc(N3CCC3)c2)c(C)n2c(=O)n(-c3ccccn3)ncc12 [1-3, 7-[3-(azetidin-1-yl)phenyl]-6,8-dimethyl-3-(2-pyridyl)pyrrolo[1,2-d][1,2,4]triazin-4-one]	< 100
COc1cccc(-c2c(C)c3cnn(-c4ccccn4)c(=O)n3c2C)c1C [1-4]	100 to 1000
Cc1c(-c2cccc(N3CCC3)c2)c(C)n2c(=O)n(C3CCOCC3)ncc12 [1-5]	100 to 1000
Cc1c(OC2CC2)cccc1-c1c(C)c2cnn(-c3ccccn3)c(=O)n2c1C [1-8]	100 to 1000
Cc1c(-c2cccc(N3CCC3)c2)c(C)n2c(=O)n(Cc3ccccn3)ncc12 [1-9]	100 to 1000
Cc1c(-c2cccc(N3CCC3)c2)c(C)n2c(=O)n(C)ncc12 [1-12]	100 to 1000
Cc1c(-c2cccc(N3CCC3)c2)c(C)n2c(=O)n(-c3ncc(F)cn3)ncc12 [1-15]	< 100
Cc1c(OC2CC2)cccc1-c1cc2cnn(-c3ncccn3)c(=O)n2c1 [1-18, 7-[3-(cyclopropoxy)-2-methyl-phenyl]-3-pyrimidin-2-yl-pyrrolo[1,2-d][1,2,4]triazin-4-one]	100 to 1000
CCOC(=O)c1cnc(-n2ncc3c(C)c(-c4cccc(OC5CC5)c4)c(C)n3c2=O)nc1 [1-19]	1000 to 10000
Cc1c(-c2cccc(OC3CC3)c2)c(C)n2c(=O)n(-c3ccccn3)ncc12 [1-20]	< 100
Cc1c(-c2cccc(OC3CC3)c2)c(C)n2c(=O)n(-c3ncc(F)cn3)ncc12 [1-21]	< 100
Cc1c(-c2cccc(N3CCC3)c2)c(C)n2c(=O)n(-c3ccc(F)cn3)ncc12 [1-22]	< 100
Cc1c(-c2cccc(N3CCC3)c2)c(C)n2c(=O)n(-c3ncccn3)ncc12 [1-23]	< 100
Cc1c(-c2cccc(N3CCC3)c2)c(C)n2c(=O)n(-c3ccc(Br)cn3)ncc12 [1-26]	1000 to 10000
Cc1c(-c2cccc(OC3CC3)c2)c(C)n2c(=O)n(-c3ncccn3)ncc12 [1-29]	< 100

Compound	IC50 [nM]
Cc1c(-c2cc(F)cc(N3CCC3)c2)c(C)n2c(=O)n(-c3ccccn3)ncc12 [1-30]	< 100
Cc1c(-c2cccc(N3CCC3)c2)c(C)n2c(=O)n(-c3ccc(NC(=O)OC(C)(C)C)cn3)ncc12 [1-31]	100 to 1000
Cc1c(-c2cccc(N3CCC3)c2)c(C)n2c(=O)n(-c3ccc(N4CCOCC4)nc3)ncc12 [1-32]	100 to 1000
Cc1c(-c2cccc(N3CCC3)c2)c(C)n2c(=O)n(C3CC3)ncc12 [1-33]	100 to 1000
Cc1c(-c2cccc(OC(F)(F)F)c2)c(C)n2c(=O)n(-c3ccccn3)ncc12 [1-38]	100 to 1000
Cc1c(-c2cccc(N3CCC3)c2)c(C)n2c(=O)n(-c3ncc(OCCN(C)C)cn3)ncc12 [1-43]	100 to 1000
Cc1c(-c2cccc(N3CCC3)c2)c(C)n2c(=O)n(-c3ncc(N)cn3)ncc12 [1-44]	< 100
Cc1c(-c2cccc(OC3CC3)c2)c(C)n2c(=O)n(-c3ncc(N4CCOCC4)cn3)ncc12 [1-47, 7-[3-(cyclopropoxy)phenyl]-6,8-dimethyl-3-(5-morpholinopyrimidin-2-yl)pyrrolo[1,2-d][1,2,4]triazin-4-one]	100 to 1000
Cc1c(OC2CC2)cccc1-c1c(C)c2cnn(-c3ncc(F)cn3)c(=O)n2c1C [1-49]	100 to 1000
Cc1cnc(-n2ncc3c(C)c(-c4cccc(OC5CC5)c4)c(C)n3c2=O)nc1 [1-50]	100 to 1000
Cc1c(-c2cccc(OC3CC3)c2)c(C)n2c(=O)n(-c3ncccc3F)ncc12 [1-51]	100 to 1000
Cc1cnc(-n2ncc3c(C)c(-c4cccc(OC5CC5)c4C)c(C)n3c2=O)nc1 [1-52]	100 to 1000
Cc1c(-c2cccc(OC(F)(F)F)c2)c(C)n2c(=O)n(-c3ncccn3)ncc12 [1-53, 6,8-dimethyl-3-pyrimidin-2-yl-7-[3-(trifluoromethoxy)phenyl]pyrrolo[1,2-d][1,2,4]triazin-4-one]	100 to 1000
COc1cnc(-n2ncc3c(C)c(-c4cccc(OC(F)F)c4)c(C)n3c2=O)nc1 [1-57]	100 to 1000
Cc1c(OC2CC2)cccc1-c1c(C)c2cnn(-c3ccc(C(C)(C)O)cn3)c(=O)n2c1C [1-59]	< 100
Cc1c(-c2cccc3c2OCCN3C)cc2cnn(-c3ncccn3)c(=O)n12 [1-63]	< 100

Further lines, results first:

IC50 [nM]	Compound
< 100	Cc1ccc(-c2c(C)c3cnn(-c4ccccn4)c(=O)n3c2C)c(C)c1 [1-1]
100 to 1000	Cc1c(-c2cccc(N3CCC3)c2)c(C)n2c(=O)n(-c3ccncc3)ncc12 [1-6]
< 100	Cc1c(-c2cccc(N3CCC3)c2)c(C)n2c(=O)n(-c3ncccc3F)ncc12 [1-7]
100 to 1000	CCn1ncc2c(C)c(-c3cccc(N4CCC4)c3)c(C)n2c1=O [1-10, 7-[3-(azetidin-1-yl)phenyl]-3-ethyl-6,8-dimethyl-pyrrolo[1,2-d][1,2,4]triazin-4-one]
1000 to 10000	Cc1c(-c2cccc(N3CCC3)c2)c(C)n2c(=O)n(-c3ccc(CCO)cn3)ncc12 [1-11]
< 100	Cc1c(-c2c(C)c3cnn(-c4ccccn4)c(=O)n3c2C)cccc1N1CCC1 [1-13]
1000 to 10000	Cc1c(C2=CCCCC2)c(C)n2c(=O)n(-c3ccccn3)ncc12 [1-14]
100 to 1000	Cc1ccc(N2CCC2)cc1-c1c(C)c2cnn(-c3ccccn3)c(=O)n2c1C [1-16]
< 100	Cc1c(-c2cccc(OC(F)F)c2)c(C)n2c(=O)n(-c3ncc(F)cn3)ncc12 [1-17]
< 100	Cc1c(-c2cccc(N3CCC3)c2)c(C)n2c(=O)n(-c3ccc(C(C)(C)O)cn3)ncc12 [1-24, 7-[3-(azetidin-1-yl)phenyl]-3-[5-(1-hydroxy-1-methyl-ethyl)-2-pyridyl]-6,8-dimethyl-pyrrolo[1,2-d][1,2,4]triazin-4-one]
< 100	COc1cnc(-n2ncc3c(C)c(-c4cccc(N5CCC5)c4)c(C)n3c2=O)nc1 [1-25]
< 100	Cc1c(OC2CC2)cccc1-c1c(C)c2cnn(-c3ncccn3)c(=O)n2c1C [1-27]
1000 to 10000	Cc1c(-c2cccc(N3CCC3)c2)c(C)n2c(=O)n(-c3ccc(N(C(=O)OC(C)(C)C)C(=O)OC(C)(C)C)cn3)ncc12 [1-28]
100 to 1000	COCCNc1ccc(-n2ncc3c(C)c(-c4cccc(N5CCC5)c4)c(C)n3c2=O)nc1 [1-35]
100 to 1000	Cc1c(-c2cccc(N3CCC3)c2)c(C)n2c(=O)n(-c3ccc(NCCN(C)C)cn3)ncc12 [1-36]
< 100	Cc1c(-c2cccc(OC(F)F)c2)c(C)n2c(=O)n(-c3ccccn3)ncc12 [1-37]
< 100	Cc1c(-c2cccc(N3CCC3)c2)c(C)n2c(=O)n(-c3ncc(OC(F)F)cn3)ncc12 [1-42]
100 to 1000	COc1cnc(-n2ncc3c(C)c(-c4ccc(C)cc4C)c(C)n3c2=O)nc1 [1-46]
100 to 1000	Cc1c(-c2cccc(OC3CC3)c2)c(C)n2c(=O)n(-c3ncc(Cl)cn3)ncc12 [1-48]
100 to 1000	Cc1c(OC2CC2)cccc1-c1c(C)c2cnn(-c3ccc(F)cn3)c(=O)n2c1C [1-54]
100 to 1000	COc1cnc(-n2ncc3c(C)c(-c4cccc(OC(F)(F)F)c4)c(C)n3c2=O)nc1 [1-56]
< 100	Cc1c(-c2cccc(OC(F)F)c2)c(C)n2c(=O)n(-c3ncccn3)ncc12 [1-58]
100 to 1000	Cc1c(-c2cccc(OC(F)(F)F)c2)c(C)n2c(=O)n(-c3ncc(F)cn3)ncc12 [1-60]
100 to 1000	COc1cccc(-c2cc3cnn(-c4ncccn4)c(=O)n3c2C)c1 [1-61]
< 100	Cc1c(-c2cccc3c2OCCN3C)cc2cnn(-c3ccccn3)c(=O)n12 [1-62]
